Data: paper PMC8509398, “Proteolytic Cleavage of Bioactive Peptides and Protease-Activated Receptors in Acute and Post-Colitis” (International Journal of Molecular Sciences, 2021)
Residues, ends and D or L forms follow the SMILES beside them. *: point of attachment. AMC = Cc1cc(=O)oc2cc(N*)ccc12; Boc = CC(C)(C)OC(=O)*

Key:
[1] = tested on: T-cell transfer colitis mouse model; conditions: treated mice; cited from earlier work
[2] = target: T1, trypsin-3 (Homo sapiens, UniProt P35030); assay: Michaelis-Menten constant of fluorogenic substrates with trypsin-3; assay type: biochemical; design: made in house; conditions: trypsin-3 0.015 nM, range of substrate concentrations, 37 °C, fluorescence measured kinetically 20 min, Michaelis-Menten fit, experiment repeated twice
T1 sequence (P35030 1-304): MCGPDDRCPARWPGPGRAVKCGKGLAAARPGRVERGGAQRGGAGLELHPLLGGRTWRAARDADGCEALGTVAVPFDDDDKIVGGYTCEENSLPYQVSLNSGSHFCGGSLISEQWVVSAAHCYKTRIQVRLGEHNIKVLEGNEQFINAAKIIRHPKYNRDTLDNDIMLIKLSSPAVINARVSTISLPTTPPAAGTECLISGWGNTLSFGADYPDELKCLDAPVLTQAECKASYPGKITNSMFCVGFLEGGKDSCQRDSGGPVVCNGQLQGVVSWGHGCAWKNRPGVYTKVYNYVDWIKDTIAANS
Method: (§1) Preheated substrate was added to colonic lysate to start the reaction. Fluorescence was measured for 20 min at 37 °C on a Tecan Infinite F200 pro microtiter plate reader. A calibration curve with AMC (Sigma-Aldrich, Saint Louis, MO, USA) was used to determine activities in units per liter, where a unit is defined as the amount of enzyme that catalyzes the conversion of one micromole of the substrate per minute in the specific experimental conditions described. Activities were normalized to protein concentration determined with Bradford to obtain activities in units per gram protein. Km for trypsin-1, trypsin-2, trypsin-3 and thrombin with Boc-QAR-AMC and Tos-GPR-AMC were also determined (Figure S5).
(§2) Figure S 5: Michaelis-Menten constant (Km) for (a) trypsin-1, (b) trypsin-2, (c) trypsin-3 and (d) thrombin with Boc-QAR-AMC and Tos -GPR-AMC. The Km was determined with Boc -QAR-AMC and Tos -GPR-AMC by adding trypsin-1 (0.015 nM), trypsin -2 (0.015 nM), trypsin -3 (0.015 nM) or thrombin (0.19 nM) to a range of substrate concentrations at 37° C. The fluorescence was measured kinetically for 20 min at 37° C on a Tecan F200 multi-plate reader. The results in RFU/min were recalculated by dividing them by the slope of a calibration curve with AMC (0.78 – 10 µM) to obtain results in µmol/L/min. […]

[3] = target: thrombin (Homo sapiens, UniProt P00734); assay: Michaelis-Menten constant of fluorogenic substrates with thrombin; assay type: biochemical; design: thrombin (Sigma-Aldrich); purchased Sigma-Aldrich; conditions: thrombin 0.19 nM, range of substrate concentrations, 37 °C, fluorescence measured kinetically 20 min, Michaelis-Menten fit, experiment repeated twice
Method: as §1, §2

[4] = target: pancreatic elastase I (Sus scrofa, UniProt P00772); assay: Cleavage of peptides by purified pancreatic elastase, MALDI-TOF/TOF; conditions: 25 nM protease, 10 µM peptide, 37 °C, time points 2, 5, 10, 30 min
Text: Trypsin-like proteases included in the experiments are trypsin-1, -2 and -3, tryptase (Enzo LifeSciences), thrombin (Sigma-Aldrich) and cathepsin G (Sigma-Aldrich). Trypsin-1, -2 and -3 were produced as described by Koistinen et al. and Wu et al.. Two elastase-like enzymes, neutrophil elastase (Enzo LifeSciences, Farmingdale, NY, USA) and pancreatic elastase I (Sigma-Aldrich) were included as well. All enzymes were from human origin except for pancreatic elastase from porcine pancreas.
Reaction mixtures with purified enzymes were compiled in an identical way. […] Substance P was added as the standard peptide except for the reaction mixtures with substance P or bradykinin as the peptide of interest, where angiotensin II (Bachem) was added.
The TFA mixtures were thawed on ice and desalted using C18 zip-tips (Merck Millipore®, Burlington, MA, USA) with a capacity of 5 µg protein. Retained peptide fragments were eluted directly on the MALDI target plate. Next, 0.5 µL of a 2.5 mg/mL α-cyano-4-hydroxycinnamic acid (Sigma-Aldrich) matrix solution (in 70% acetonitrile, 0.1% TFA) was spotted on top of the sample. A 6-Peptide mixture Kit (AB Sciex, Framingham, MA, USA) containing bradykinin (2–9), angiotensin I, glu1-fibrinopeptide, ACTH (1–17), ACTH (18–39) and ACTH (7–38) was diluted with matrix and spotted on the plate as well.
MS and MS/MS data for peptide fragment identification were obtained with a MALDI-TOF/TOF instrument (4800 MALDI TOF/TOF™, Applied Biosystems, Waltham, MA, USA) and instrument parameters were set using 4000 Series Explorer™ software. MS spectra were recorded in positive reflector mode in a mass range from 500 to 4000 Da and laser intensity of 4500–4800 Hz. The spectra were calibrated using the calibration mixture mentioned above to a mass tolerance of 0.1 Da. MS/MS spectra were recorded with high-energy collision-induced dissociation and the laser intensity was increased by 10%.
Identified fragments were confirmed using the MS/MS spectra and mMass 5.5.0 by Martin Strohalm. The relative intensities of the fragments were calculated as the ratio of the intensity of the peak of interest to the intensity of the peak of the standard peptide.

[5] = substrate: Cc1cc(=O)oc2cc(NC(=O)[C@H](CCCNC(=N)N)NC(=O)[C@H](C)NC(=O)[C@H](CCC(N)=O)NC(=O)OC(C)(C)C)ccc12; assay: Michaelis-Menten constant of fluorogenic substrates with trypsin-2; assay type: biochemical, human; conditions: other: trypsin-2 0.015 nM, range of substrate concentrations, 37 °C, fluorescence measured kinetically 20 min, Michaelis-Menten fit, experiment repeated twice
Method: as §1, §2

pancreatic elastase I, sequence (P00772 27-266): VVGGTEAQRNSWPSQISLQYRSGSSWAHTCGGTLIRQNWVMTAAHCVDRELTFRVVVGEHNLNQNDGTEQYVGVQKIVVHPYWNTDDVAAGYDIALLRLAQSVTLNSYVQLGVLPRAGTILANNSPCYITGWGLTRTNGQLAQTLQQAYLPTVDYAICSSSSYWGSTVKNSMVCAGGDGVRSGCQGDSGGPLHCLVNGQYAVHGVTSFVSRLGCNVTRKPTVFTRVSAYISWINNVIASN

CC(=O)Nc1ccc(OP(=O)(Oc2ccc(NC(C)=O)cc2)C(Cc2ccc(N=C(N)N)cc2)NC(=O)OCc2ccccc2)cc1.Cl (stereo not shown) [UAMC-00050]
Effect on intestinal inflammation and permeability [1]: ameliorated intestinal inflammation and permeability | Effect on mRNA expression of PAR4 [1]: decreased the mRNA expression of PAR4

Cc1cc(=O)oc2cc(NC(=O)[C@H](CCCNC(=N)N)NC(=O)[C@H](C)NC(=O)[C@H](CCC(N)=O)NC(=O)OC(C)(C)C)ccc12 [Boc-QAR-AMC] (Boc-Gln-Ala-Arg-{AMC})
Km [2]: 4.6 ± 0.3 µM | Km [3]: 2510 ± 285 µM

CSCC[C@H](NC(=O)[C@H](Cc1ccccc1)NC(=O)CNC(=O)CNC(=O)[C@@H](N)Cc1ccc(O)cc1)C(=O)O [M-enkephalin, Met-enkephalin]
Incubation time at which the first cleavage or decrease of the full-length peptide was observed, pancreatic elastase [4]: 30 min

CC(C)C[C@H](NC(=O)[C@H](Cc1ccccc1)NC(=O)CNC(=O)CNC(=O)[C@@H](N)Cc1ccc(O)cc1)C(=O)O [L-enkephalin, Leu-enkephalin]
Incubation time at which the first cleavage or decrease of the full-length peptide was observed, pancreatic elastase [4]: 30 min

B1: trypsin-2 (Homo sapiens) (protein)
chain: IVGGYICEENSVPYQVSLNSGYHFCGGSLISEQWVVSAGHCYKSRIQVRLGEHNIEVLEGNEQFINAAKIIRHPKYNSRTLDNDILLIKLSSPAVINSRVSAISLPTAPPAAGTESLISGWGNTLSSGADYPDELQCLDAPVLSQAECEASYPGKITNNMFCVGFLEGGKDSCQGDSGGPVVSNGELQGIVSWGYGCAQKNRPGVYTKVYNYVDWIKDTIAANS
notes: made in house
Km [5]: 11.8 ± 0.1 µM
